Counter-ions that a name gives are not always drawn.
How the values were obtained:
[1] = target: PI3Kδ (p110δ/p85α) Recombinant Human Protein (Homo sapiens (Human), UniProt O00329); experiment: PI3Kδ scintillation proximity assay; format: biochemical; conditions: 2 μM ATP, 20 μM PIP2
[2] = target: PI3Kγ (p110γ) Recombinant Human Protein (Homo sapiens (Human), UniProt P48736); experiment: PI3K-γ scintillation proximity assay; format: biochemical; conditions: 2 μM ATP, 20 μM PIP2
[3] = tested on: Phosphorylated Ribosomal Protein S6 (RPS6) in THP-1 cells; experiment: THP-1 RPS6 ELISA assay; format: cell-based, human; conditions: Homo sapiens, THP-1, THP-1 cells, 10 nM MCP-1; read-out: PI3Kγ_THP1_RPS6_ELISA IC50

Sequence of PI3Kδ (p110δ/p85α) Recombinant Human Protein (O00329 whole entry): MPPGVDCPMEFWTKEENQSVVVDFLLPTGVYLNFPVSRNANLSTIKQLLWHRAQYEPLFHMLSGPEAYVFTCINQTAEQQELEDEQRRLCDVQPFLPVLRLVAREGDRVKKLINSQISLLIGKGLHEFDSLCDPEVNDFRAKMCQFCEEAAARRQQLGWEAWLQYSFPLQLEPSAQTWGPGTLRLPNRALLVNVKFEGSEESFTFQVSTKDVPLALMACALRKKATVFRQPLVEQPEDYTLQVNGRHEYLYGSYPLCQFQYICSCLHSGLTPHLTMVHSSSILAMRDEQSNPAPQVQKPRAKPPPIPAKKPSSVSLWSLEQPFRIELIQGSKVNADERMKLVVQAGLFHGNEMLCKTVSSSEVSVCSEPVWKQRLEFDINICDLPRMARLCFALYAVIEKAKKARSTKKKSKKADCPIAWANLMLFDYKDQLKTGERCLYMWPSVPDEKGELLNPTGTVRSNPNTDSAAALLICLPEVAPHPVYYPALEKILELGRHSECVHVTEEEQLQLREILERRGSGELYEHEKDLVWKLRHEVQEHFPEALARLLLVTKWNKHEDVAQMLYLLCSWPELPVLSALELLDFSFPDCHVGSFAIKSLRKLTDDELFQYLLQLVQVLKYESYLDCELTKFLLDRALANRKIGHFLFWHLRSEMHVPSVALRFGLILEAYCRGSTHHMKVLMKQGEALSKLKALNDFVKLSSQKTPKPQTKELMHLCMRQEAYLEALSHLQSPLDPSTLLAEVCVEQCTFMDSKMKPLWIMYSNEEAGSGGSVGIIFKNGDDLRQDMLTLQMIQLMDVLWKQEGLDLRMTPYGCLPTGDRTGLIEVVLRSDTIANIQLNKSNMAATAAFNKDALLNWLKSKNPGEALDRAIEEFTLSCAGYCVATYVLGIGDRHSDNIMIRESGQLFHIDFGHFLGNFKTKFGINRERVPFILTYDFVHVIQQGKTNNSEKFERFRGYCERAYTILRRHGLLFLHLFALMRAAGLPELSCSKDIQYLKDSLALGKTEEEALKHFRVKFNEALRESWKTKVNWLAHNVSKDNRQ
Sequence of PI3Kδ (p110δ/p85α) Recombinant Human Protein (P27986 whole entry partner): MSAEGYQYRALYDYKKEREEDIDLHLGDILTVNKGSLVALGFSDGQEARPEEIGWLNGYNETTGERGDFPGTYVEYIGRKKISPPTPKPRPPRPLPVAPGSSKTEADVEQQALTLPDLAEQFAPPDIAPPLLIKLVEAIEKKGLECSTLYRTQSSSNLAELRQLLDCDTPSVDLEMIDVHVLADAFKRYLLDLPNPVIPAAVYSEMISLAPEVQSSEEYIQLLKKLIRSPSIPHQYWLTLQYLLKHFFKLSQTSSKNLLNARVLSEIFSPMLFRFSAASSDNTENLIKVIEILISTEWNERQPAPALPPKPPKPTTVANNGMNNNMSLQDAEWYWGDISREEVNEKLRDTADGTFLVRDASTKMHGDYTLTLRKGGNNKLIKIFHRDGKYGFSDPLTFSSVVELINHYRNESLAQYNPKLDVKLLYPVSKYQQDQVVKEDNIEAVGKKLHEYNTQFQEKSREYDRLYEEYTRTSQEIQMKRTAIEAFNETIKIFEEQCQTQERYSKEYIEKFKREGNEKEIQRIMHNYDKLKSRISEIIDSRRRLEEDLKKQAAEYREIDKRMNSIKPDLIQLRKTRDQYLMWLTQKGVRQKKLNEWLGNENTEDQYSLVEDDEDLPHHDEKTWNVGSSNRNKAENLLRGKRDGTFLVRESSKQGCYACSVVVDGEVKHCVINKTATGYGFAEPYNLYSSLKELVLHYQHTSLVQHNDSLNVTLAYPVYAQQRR
Sequence of PI3Kγ (p110γ) Recombinant Human Protein (P48736 whole entry): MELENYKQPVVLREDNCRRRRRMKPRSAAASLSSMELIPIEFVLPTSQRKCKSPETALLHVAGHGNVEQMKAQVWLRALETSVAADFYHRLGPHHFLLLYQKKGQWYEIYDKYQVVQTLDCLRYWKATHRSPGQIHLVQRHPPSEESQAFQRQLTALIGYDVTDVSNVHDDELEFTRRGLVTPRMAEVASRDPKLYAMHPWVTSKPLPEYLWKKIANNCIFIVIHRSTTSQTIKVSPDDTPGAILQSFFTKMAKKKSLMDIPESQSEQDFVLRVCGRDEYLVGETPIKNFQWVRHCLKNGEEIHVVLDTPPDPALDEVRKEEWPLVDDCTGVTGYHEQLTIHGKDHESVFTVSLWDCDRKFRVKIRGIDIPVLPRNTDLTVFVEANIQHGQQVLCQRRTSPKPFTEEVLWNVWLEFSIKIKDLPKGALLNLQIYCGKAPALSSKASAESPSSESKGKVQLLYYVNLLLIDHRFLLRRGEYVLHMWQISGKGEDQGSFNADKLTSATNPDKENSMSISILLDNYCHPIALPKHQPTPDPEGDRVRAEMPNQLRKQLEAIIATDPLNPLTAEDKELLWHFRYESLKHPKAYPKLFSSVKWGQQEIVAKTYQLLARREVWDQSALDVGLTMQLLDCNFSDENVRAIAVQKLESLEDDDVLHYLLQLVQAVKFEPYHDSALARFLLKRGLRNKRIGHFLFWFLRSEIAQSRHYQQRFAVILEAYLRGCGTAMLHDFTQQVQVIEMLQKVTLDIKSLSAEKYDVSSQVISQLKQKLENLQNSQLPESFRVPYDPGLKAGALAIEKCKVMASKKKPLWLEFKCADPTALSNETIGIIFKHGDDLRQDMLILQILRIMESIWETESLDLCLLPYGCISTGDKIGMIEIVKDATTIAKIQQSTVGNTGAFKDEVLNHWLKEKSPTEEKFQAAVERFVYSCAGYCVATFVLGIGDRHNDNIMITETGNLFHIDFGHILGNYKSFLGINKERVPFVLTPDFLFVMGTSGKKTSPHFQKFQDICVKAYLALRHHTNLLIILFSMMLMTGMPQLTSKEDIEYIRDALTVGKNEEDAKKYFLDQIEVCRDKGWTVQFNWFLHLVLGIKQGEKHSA

| Compound | IC50 [1] | IC50 [2] | IC50 [3] |
| --- | --- | --- | --- |
| CC(NC(=O)c1c(N)nn2cccnc12)c1cc(Cl)c2cncn2c1-c1ccc(S(C)(=O)=O)cc1 (racemic) [Example 136, 2-Amino-N-(1-{8-chloro-5-[4-(methylsulfonyl)phenyl]imidazo[1,5-a]pyridin-6-yl}ethyl)pyrazolo[1,5-a]pyrimidine-3-carboxamide trifluoroacetate salt] | < 500 nM | < 100 nM | > 1000 nM |
| CC(NC(=O)c1c(N)nn2cccnc12)c1cc(Cl)c2cncn2c1-c1cncc(C#N)c1 (racemic) [Example 137, 2-Amino-N-{1-[8-chloro-5-(5-cyanopyridin-3-yl)imidazo[1,5-a]pyridin-6-yl]ethyl}pyrazolo[1,5-a]pyrimidine-3-carboxamide trifluoroacetate salt] | < 100 nM | < 100 nM | < 500 nM |
| CC(NC(=O)c1c(N)nn2cccnc12)c1cc(Cl)c2cncn2c1-c1cnccn1 (racemic) [Example 138, 2-Amino-N-[1-(8-chloro-5-pyrazin-2-ylimidazo[1,5-a]pyridin-6-yl)ethyl]pyrazolo[1,5-a]pyrimidine-3-carboxamide trifluoroacetate salt] | < 500 nM | < 100 nM | < 1000 nM |
| Cc1ncc2c(Cl)cc(C(C)NC(=O)c3c(N)nn4cccnc34)c(N3CCCS(=O)(=O)CC3)n12 (racemic) [Example 158, 2-Amino-N-(1-(8-chloro-5-(1,1-dioxido-1,4-thiazepan-4-yl)-3-methylimidazo[1,5-a]pyridin-6-yl)ethyl)pyrazolo[1,5-a]pyrimidine-3-carboxamide trifluoroacetate salt] | < 500 nM | < 100 nM | < 500 nM |
| CC(NC(=O)c1c(N)nn2cccnc12)c1cc(Cl)c2c(Cl)ncn2c1N1CCS(=O)(=O)CC1 (racemic) [Example 162, 2-Amino-N-{1-[1,8-dichloro-5-(1,1-dioxidothiomorpholin-4-yl)imidazo[1,5-a]pyridin-6-yl]ethyl}pyrazolo[1,5-a]pyrimidine-3-carboxamide trifluoroacetate salt] | < 500 nM | < 100 nM | < 500 nM |
| CC(NC(=O)c1c(N)nn2cccnc12)c1cc(Cl)c2c(Cl)ncn2c1N1CCC(C#N)CC1 (racemic) [Example 163, 2-Amino-N-{1-[1,8-dichloro-5-(4-cyanopiperidin-1-yl)imidazo[1,5-a]pyridin-6-yl]ethyl}pyrazolo[1,5-a]pyrimidine-3-carboxamide trifluoroacetate salt] | < 100 nM | < 100 nM | < 500 nM |
| CC(NC(=O)c1c(N)nn2cccnc12)c1cc(Cl)c2c(C#N)ncn2c1N1CCS(=O)(=O)CC1 (racemic) [Example 164, 2-Amino-N-{1-[8-chloro-1-cyano-5-(1,1-dioxidothiomorpholin-4-yl)imidazo[1,5-a]pyridin-6-yl]ethyl}pyrazolo[1,5-a]pyrimidine-3-carboxamide trifluoroacetate salt] | < 2000 nM | < 100 nM | > 1000 nM |
| CC1CN(c2c(CNC(=O)c3c(N)nn4cccnc34)cc(Cl)c3cncn23)CCS1(=O)=O (racemic) [Example 167, 2-Amino-N-((8-chloro-5-(2-methyl-1,1-dioxidothiomorpholino)imidazo[1,5-a]pyridin-6-yl)methyl)pyrazolo[1,5-a]pyrimidine-3-carboxamide trifluoroacetate salt] | < 500 nM | < 100 nM | < 500 nM |
| CC1CN(c2c(CNC(=O)c3c(N)nn4cccnc34)cc(Cl)c3c(Cl)ncn23)CCS1(=O)=O (racemic) [Example 169, 2-Amino-N-((1,8-dichloro-5-(2-methyl-1,1-dioxidothiomorpholino)imidazo[1,5-a]pyridin-6-yl)methyl)pyrazolo[1,5-a]pyrimidine-3-carboxamide trifluoroacetate salt] | < 500 nM | < 100 nM | < 500 nM |
| Nc1nn2cccnc2c1C(=O)NC(c1cc(Cl)c2cncn2c1N1CCS(=O)(=O)CC1)C(F)(F)F (racemic) [Example 180, 2-Amino-N-{1-[8-chloro-5-(1,1-dioxidothiomorpholin-4-yl)imidazo[1,5-a]pyridin-6-yl]-2,2,2-trifluoroethyl}pyrazolo[1,5-a]pyrimidine-3-carboxamide trifluoroacetate salt] | < 100 nM | < 100 nM | < 500 nM |

Next, values leading:

| IC50 [1] | IC50 [2] | IC50 [3] | Compound |
| --- | --- | --- | --- |
| < 100 nM | < 100 nM | < 500 nM | CC(NC(=O)c1c(N)nn2cccnc12)c1cc(Cl)c2cncn2c1-c1cn[nH]c1 (racemic) [Example 139, 2-Amino-N-{1-[8-chloro-5-(1H-pyrazol-4-yl)imidazo[1,5-a]pyridin-6-yl]ethyl}pyrazolo[1,5-a]pyrimidine-3-carboxamide trifluoroacetate salt] |
| < 100 nM | < 100 nM | < 500 nM | CC(NC(=O)c1c(N)nn2cccnc12)c1cc(Cl)c2cncn2c1-c1cnn(C)c1 (racemic) [Example 140, 2-Amino-N-{1-[8-chloro-5-(1-methyl-1H-pyrazol-4-yl)imidazo[1,5-a]pyridin-6-yl]ethyl}pyrazolo[1,5-a]pyrimidine-3-carboxamide trifluoroacetate salt] |
| < 500 nM | < 100 nM | < 500 nM | CC(NC(=O)c1c(N)nn2cccnc12)c1cc(Cl)c2cncn2c1N1CCN(S(C)(=O)=O)CC1 (racemic) [Example 141, 2-Amino-N-(1-{8-chloro-5-[4-(methylsulfonyl)piperazin-1-yl]imidazo[1,5-a]pyridin-6-yl}ethyl)pyrazolo[1,5-a]pyrimidine-3-carboxamide trifluoroacetate salt] |
| < 100 nM | < 100 nM | < 500 nM | CC(NC(=O)c1c(N)nn2cccnc12)c1cc(Cl)c2cncn2c1N1CCCC1 (racemic) [Example 142, 2-Amino-N-[1-(8-chloro-5-pyrrolidin-1-ylimidazo[1,5-a]pyridin-6-yl)ethyl]pyrazolo[1,5-a]pyrimidine-3-carboxamide trifluoroacetate salt] |
| < 500 nM | < 100 nM | < 1000 nM | COC1CCN(c2c(C(C)NC(=O)c3c(N)nn4cccnc34)cc(Cl)c3cncn23)CC1 (racemic) [Example 143, 2-Amino-N-{1-[8-chloro-5-(4-methoxypiperidin-1-yl)imidazo[1,5-a]pyridin-6-yl]ethyl}pyrazolo[1,5-a]pyrimidine-3-carboxamide] |
| < 100 nM | < 100 nM | > 1000 nM | CC(NC(=O)c1c(N)nn2cccnc12)c1cc(Cl)c2cncn2c1N1CCOCC1 (racemic) [Example 145, 2-Amino-N-[1-(8-chloro-5-morpholin-4-ylimidazo[1,5-a]pyridin-6-yl)ethyl]pyrazolo[1,5-a]pyrimidine-3-carboxamide trifluoroacetate salt] |
| < 100 nM | < 100 nM | < 500 nM | CC(NC(=O)c1c(N)nn2cccnc12)c1cc(Cl)c2cncn2c1N1CCC(O)CC1 (racemic) [Example 146, 2-Amino-N-{1-[8-chloro-5-(4-hydroxypiperidin-1-yl)imidazo[1,5-a]pyridin-6-yl]ethyl}pyrazolo[1,5-a]pyrimidine-3-carboxamide trifluoroacetate salt] |
| < 500 nM | < 100 nM | < 500 nM | CC(NC(=O)c1c(N)nn2cccnc12)c1cc(Cl)c2cncn2c1N1CCC(Br)CC1 (racemic) [Example 147, 2-Amino-N-{1-[5-(4-bromopiperidin-1-yl)-8-chloroimidazo[1,5-a]pyridin-6-yl]ethyl}pyrazolo[1,5-a]pyrimidine-3-carboxamide trifluoroacetate salt] |
| < 100 nM | < 100 nM | < 500 nM | CC(NC(=O)c1c(N)nn2cccnc12)c1cc(Cl)c2cncn2c1N1CCNS(=O)(=O)CC1 (racemic) [Example 149, 2-Amino-N-{1-[8-chloro-5-(1,1-dioxido-1,2,5-thiadiazepan-5-yl)imidazo[1,5-a]pyridin-6-yl]ethyl}pyrazolo[1,5-a]pyrimidine-3-carboxamide] |
| < 100 nM | < 100 nM | < 500 nM | CC(NC(=O)c1c(N)nn2cccnc12)c1cc(Cl)c2cncn2c1N1CCCS(=O)(=O)CC1 (racemic) [Example 151, 2-Amino-N-{1-[8-chloro-5-(1,1-dioxido-1,4-thiazepan-4-yl)imidazo[1,5-a]pyridin-6-yl]ethyl}pyrazolo[1,5-a]pyrimidine-3-carboxamide trifluoroacetate salt] |
| < 500 nM | < 500 nM | < 1000 nM | CC(NC(=O)c1c(N)nn2cccnc12)c1cc(Cl)c2cncn2c1N1CCN(C)C(=O)C1 (racemic) [Example 154, 2-Amino-N-{1-[8-chloro-5-(4-methyl-3-oxopiperazin-1-yl)imidazo[1,5-a]pyridin-6-yl]ethyl}pyrazolo[1,5-a]pyrimidine-3-carboxamide trifluoroacetate salt] |
| < 500 nM | < 100 nM | < 500 nM | CC(NC(=O)c1c(N)nn2cccnc12)c1cc(Cl)c2cncn2c1N1C[C@H](O)C[C@@H](O)C1 (mixture of isomers) [Example 155A, 2-Amino-N-(1-{8-chloro-5-[(3R,5R)-3,5-dihydroxypiperidin-1-yl]imidazo[1,5-a]pyridin-6-yl}ethyl)pyrazolo[1,5-a]pyrimidine-3-carboxamide trifluoroacetate salt] |
| < 100 nM | < 100 nM | < 500 nM | CC(C)C(NC(=O)c1c(N)nn2cccnc12)c1cc(Cl)c2cncn2c1N1CCS(=O)(=O)CC1 (racemic) [Example 181, 2-Amino-N-(1-(8-chloro-5-(1,1-dioxidothiomorpholino)imidazo[1,5-a]pyridin-6-yl)-2-methylpropyl)pyrazolo[1,5-a]pyrimidine-3-carboxamide trifluoroacetate salt] |
